Measurements reported in paper PMC10175918 (Communications Biology, 2023).
Like-named read-outs stand apart in the source and are kept apart here.

Columns and labels:
Test in all cases: TGFα-shedding assay-based GPCR screening with chimeric Gα subunit proteins
Format in all cases: cell-based
[1] = target: T1, 348 GPCRs (Homo sapiens, UniProt O60883); settings: 10µM, Favipiravir 100μM
T1 construct: expressed in transfected cells; host or cells: HEK293A
T1 sequence (O60883 26-481): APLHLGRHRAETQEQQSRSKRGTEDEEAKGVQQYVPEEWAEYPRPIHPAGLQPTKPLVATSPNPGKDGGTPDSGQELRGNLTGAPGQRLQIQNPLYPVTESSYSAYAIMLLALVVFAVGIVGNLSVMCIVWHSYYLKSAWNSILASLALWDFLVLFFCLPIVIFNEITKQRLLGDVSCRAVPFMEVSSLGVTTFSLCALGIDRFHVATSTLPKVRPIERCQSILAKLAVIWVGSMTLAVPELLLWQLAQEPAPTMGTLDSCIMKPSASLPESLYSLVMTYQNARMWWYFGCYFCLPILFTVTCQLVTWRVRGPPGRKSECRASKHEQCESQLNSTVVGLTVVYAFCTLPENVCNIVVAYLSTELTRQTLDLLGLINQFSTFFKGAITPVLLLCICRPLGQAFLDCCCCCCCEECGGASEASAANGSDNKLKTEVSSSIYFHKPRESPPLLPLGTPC

[2] = target: T2, 348 GPCRs (Homo sapiens, UniProt P41587)
T2 construct: expressed in transfected cells; host or cells: HEK293A
T2 sequence (P41587 24-438): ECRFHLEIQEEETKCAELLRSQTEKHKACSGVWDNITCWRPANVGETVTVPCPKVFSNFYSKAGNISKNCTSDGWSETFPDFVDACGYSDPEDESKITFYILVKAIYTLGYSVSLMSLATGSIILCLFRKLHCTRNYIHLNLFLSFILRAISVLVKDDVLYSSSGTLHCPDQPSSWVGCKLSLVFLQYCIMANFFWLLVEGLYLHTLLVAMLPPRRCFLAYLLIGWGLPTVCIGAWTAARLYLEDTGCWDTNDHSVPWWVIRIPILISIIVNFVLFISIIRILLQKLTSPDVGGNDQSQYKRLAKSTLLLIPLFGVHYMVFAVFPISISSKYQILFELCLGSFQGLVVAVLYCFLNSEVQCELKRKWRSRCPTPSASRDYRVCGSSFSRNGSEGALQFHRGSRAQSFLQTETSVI

[3] = target: T3, 348 GPCRs (Homo sapiens, UniProt Q13255); settings: 10µM, Favipiravir 100μM
T3 construct: expressed in transfected cells; host or cells: HEK293A

[4] = target: T4, 348 GPCRs (Homo sapiens, UniProt Q9Y5Y3)
T4 construct: expressed in transfected cells; host or cells: HEK293A

[5] = target: T5, 348 GPCRs (Homo sapiens, UniProt P41180); settings: 10µM, Favipiravir 100μM
T5 construct: expressed in transfected cells; host or cells: HEK293A
T5 sequence (P41180 20-1078): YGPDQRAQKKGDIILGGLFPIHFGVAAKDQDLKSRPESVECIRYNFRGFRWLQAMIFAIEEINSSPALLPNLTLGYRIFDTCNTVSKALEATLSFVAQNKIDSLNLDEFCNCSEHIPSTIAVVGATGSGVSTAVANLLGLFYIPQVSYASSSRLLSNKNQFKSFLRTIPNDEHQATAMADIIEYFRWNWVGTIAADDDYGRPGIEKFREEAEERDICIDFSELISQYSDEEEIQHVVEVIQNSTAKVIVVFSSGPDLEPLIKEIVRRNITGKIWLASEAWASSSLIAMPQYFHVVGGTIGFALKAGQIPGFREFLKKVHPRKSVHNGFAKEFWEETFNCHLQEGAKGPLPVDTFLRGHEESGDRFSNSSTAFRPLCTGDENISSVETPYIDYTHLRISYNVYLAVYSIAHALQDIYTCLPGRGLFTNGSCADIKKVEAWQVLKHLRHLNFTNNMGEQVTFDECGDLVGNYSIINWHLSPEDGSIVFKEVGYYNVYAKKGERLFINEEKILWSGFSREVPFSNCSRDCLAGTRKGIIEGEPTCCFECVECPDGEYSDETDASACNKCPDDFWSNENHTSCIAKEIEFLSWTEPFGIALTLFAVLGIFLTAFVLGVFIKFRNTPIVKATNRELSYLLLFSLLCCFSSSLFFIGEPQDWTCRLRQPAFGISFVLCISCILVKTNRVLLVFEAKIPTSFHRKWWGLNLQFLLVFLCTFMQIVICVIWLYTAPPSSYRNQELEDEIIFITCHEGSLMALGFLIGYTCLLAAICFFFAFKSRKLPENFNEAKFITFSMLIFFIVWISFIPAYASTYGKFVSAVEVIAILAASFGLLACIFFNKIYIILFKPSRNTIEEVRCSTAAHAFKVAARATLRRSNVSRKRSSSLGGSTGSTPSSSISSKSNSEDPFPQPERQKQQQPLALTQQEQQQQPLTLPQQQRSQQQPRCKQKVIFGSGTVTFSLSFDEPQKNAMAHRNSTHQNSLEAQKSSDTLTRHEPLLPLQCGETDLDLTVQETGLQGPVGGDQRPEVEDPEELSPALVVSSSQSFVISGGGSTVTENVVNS

[6] = target: T6, 348 GPCRs (Homo sapiens, UniProt P04001); settings: 10µM, Favipiravir 100μM
T6 construct: expressed in transfected cells; host or cells: HEK293A
T6 sequence (P04001 1-364): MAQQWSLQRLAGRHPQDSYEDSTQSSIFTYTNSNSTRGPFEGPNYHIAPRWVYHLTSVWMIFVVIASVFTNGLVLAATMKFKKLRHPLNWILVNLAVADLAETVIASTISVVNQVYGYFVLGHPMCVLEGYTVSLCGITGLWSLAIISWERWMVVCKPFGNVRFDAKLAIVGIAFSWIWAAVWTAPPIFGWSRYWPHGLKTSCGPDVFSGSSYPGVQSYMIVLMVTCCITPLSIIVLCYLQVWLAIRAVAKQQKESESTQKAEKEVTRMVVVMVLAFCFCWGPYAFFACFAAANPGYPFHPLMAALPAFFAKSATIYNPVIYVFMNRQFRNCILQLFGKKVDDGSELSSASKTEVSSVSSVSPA

[7] = GPR37L1 (G Protein-Coupled Receptor 37 Like 1), read-out: % GPCR activation compared to TPA
[8] = GPCR VIPR2 (vasoactive intestinal peptide receptor 2), read-out: % GPCR activation compared to TPA
[9] = GRM1 (glutamate receptor, metabotropic 1), read-out: % GPCR activation compared to TPA
[10] = GPCR GPR45 (G Protein-Coupled Receptor 45), read-out: % GPCR activation compared to TPA
[11] = CASR (calcium sensing receptor), read-out: % GPCR activation compared to TPA
[12] = OPN1MW (opsin 1 (cone pigments), medium-wave-sensitive), read-out: % GPCR activation compared to TPA
[13] = read-out: % GPCR activation compared to TPA, GPR37L1 (G Protein-Coupled Receptor 37 Like 1)
[14] = read-out: % GPCR activation compared to TPA, GPCR VIPR2 (vasoactive intestinal peptide receptor 2)
[15] = read-out: % GPCR activation compared to TPA, GRM1 (glutamate receptor, metabotropic 1)
[16] = read-out: % GPCR activation compared to TPA, GPCR GPR45 (G Protein-Coupled Receptor 45)
[17] = read-out: % GPCR activation compared to TPA, CASR (calcium sensing receptor)
[18] = read-out: % GPCR activation compared to TPA, OPN1MW (opsin 1 (cone pigments), medium-wave-sensitive)

T4 sequence (Q9Y5Y3 whole entry): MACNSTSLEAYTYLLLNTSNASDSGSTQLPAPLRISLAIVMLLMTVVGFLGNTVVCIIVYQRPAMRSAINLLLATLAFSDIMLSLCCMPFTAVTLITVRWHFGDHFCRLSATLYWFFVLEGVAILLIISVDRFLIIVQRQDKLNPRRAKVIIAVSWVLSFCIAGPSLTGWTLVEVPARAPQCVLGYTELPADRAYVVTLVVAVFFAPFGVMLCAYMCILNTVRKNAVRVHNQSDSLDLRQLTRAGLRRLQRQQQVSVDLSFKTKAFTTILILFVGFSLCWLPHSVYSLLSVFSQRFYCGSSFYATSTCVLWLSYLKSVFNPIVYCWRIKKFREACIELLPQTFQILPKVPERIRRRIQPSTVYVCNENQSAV
T3 sequence (Q13255 19-1194): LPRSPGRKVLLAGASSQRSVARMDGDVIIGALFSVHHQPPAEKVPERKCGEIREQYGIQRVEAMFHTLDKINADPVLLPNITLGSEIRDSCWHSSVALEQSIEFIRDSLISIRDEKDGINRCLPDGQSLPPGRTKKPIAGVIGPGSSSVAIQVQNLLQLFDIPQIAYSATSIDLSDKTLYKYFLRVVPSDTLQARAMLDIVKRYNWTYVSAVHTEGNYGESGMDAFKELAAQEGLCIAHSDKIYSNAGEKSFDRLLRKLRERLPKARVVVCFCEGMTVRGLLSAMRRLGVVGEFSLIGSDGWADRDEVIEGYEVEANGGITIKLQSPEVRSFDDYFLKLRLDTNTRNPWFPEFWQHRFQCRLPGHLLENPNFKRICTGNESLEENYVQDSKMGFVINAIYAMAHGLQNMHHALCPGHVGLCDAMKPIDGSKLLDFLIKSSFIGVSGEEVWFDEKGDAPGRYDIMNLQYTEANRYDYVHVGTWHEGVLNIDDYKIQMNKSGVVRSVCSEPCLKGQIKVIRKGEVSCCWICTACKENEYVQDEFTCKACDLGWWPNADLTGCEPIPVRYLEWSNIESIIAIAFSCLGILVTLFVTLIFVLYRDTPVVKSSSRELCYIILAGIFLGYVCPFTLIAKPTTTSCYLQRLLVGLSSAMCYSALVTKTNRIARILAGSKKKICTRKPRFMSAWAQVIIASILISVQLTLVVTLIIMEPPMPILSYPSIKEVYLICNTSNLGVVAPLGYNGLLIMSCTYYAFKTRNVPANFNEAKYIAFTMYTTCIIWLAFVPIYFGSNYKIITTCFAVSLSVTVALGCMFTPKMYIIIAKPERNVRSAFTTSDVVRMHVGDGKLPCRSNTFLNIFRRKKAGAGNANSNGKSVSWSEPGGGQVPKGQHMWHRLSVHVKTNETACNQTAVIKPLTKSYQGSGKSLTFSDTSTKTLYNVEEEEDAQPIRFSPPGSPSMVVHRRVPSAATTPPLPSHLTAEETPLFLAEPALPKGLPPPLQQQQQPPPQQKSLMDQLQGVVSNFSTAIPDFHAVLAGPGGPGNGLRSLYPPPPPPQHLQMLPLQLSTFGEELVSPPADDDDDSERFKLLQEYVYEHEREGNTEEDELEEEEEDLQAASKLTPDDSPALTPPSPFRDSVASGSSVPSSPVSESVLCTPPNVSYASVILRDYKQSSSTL

Compound	activation at 10 µM [1, 7] [%]	activation at 10 µM [2, 8] [%]	activation at 10 µM [3, 9] [%]	activation at 10 µM [4, 10] [%]	activation at 100 µM [5, 11] [%]	activation at 100 µM [6, 12] [%]	activation at 100 µM ([2]; GPCR VIPR2 (vasoactive intestinal peptide receptor 2), 100μM, read-out: % GPCR activation compared to TPA) [%]	activation at 100 µM ([4]; GPCR GPR45 (G Protein-Coupled Receptor 45), 100μM, read-out: % GPCR activation compared to TPA) [%]	activation at 10 µM [1, 13] [%]	activation at 10 µM [2, 14] [%]	activation at 10 µM [3, 15] [%]	activation at 10 µM [4, 16] [%]	activation at 100 µM [5, 17] [%]	activation at 100 µM [6, 18] [%]
N#C[C@@]1(c2ccc3c(N)ncnn23)O[C@H](CO)[C@@H](O)[C@H]1O [GS441524]	-2.03	-0.864	-0.549	-0.0256	1.55	-1.4								
CCC(CC)COC(=O)[C@H](C)N[P@](=O)(OC[C@H]1O[C@@](C#N)(c2ccc3c(N)ncnn23)[C@H](O)[C@@H]1O)Oc1ccccc1 [remdesivir]									-2.18	0.502	-0.568	0.315	4.48	1.48
CC(C)OC(=O)[C@H](C)N[P@](=O)(OC[C@H]1O[C@@H](n2ccc(=O)[nH]c2=O)[C@](C)(F)[C@@H]1O)Oc1ccccc1 [sofosbuvir]									-1.91	1.3	0.735	0.955	-3.31	-1.41

Second part, led by results:

activation at 10 µM [1, 7] [%]	activation at 10 µM [2, 8] [%]	activation at 10 µM [3, 9] [%]	activation at 10 µM [4, 10] [%]	activation at 100 µM [5, 11] [%]	activation at 100 µM [6, 12] [%]	activation at 100 µM ([2]; GPCR VIPR2 (vasoactive intestinal peptide receptor 2), 100μM, read-out: % GPCR activation compared to TPA) [%]	activation at 100 µM ([4]; GPCR GPR45 (G Protein-Coupled Receptor 45), 100μM, read-out: % GPCR activation compared to TPA) [%]	Compound	activation at 10 µM [1, 13] [%]	activation at 10 µM [2, 14] [%]	activation at 10 µM [3, 15] [%]	activation at 10 µM [4, 16] [%]	activation at 100 µM [5, 17] [%]	activation at 100 µM [6, 18] [%]
-2.32		-0.946		0.748	-0.549	-0.699	-0.546	NC(=O)c1nc(F)cnc1O [favipiravir, 6-fluoro-3-hydroxy-2-pyrazinecarboxamide]						
-1.63	-0.156	-0.761	0.592	-0.137	-0.857			CC(C)C(=O)OC[C@H]1O[C@@H](n2ccc(NO)nc2=O)[C@H](O)[C@@H]1O [molnupiravir]						
